Counter-ions that a name gives are not always drawn.

The target of assay [1] is T1, BRD4 (BD1) (Homo sapiens, UniProt O60885).
T1 construct: Each member comprises two tandem bromodomains (BD1 and BD2) for recognizing the acetylated lysine residues
Briefly: BRD4 (BD1) bromodomain binding, HTRF. The note with it: 2 h incubation at r.t.

Assay [2] deals with T2, BRD4 (BD2) (Homo sapiens, UniProt O60885).
T2 construct: Each member comprises two tandem bromodomains (BD1 and BD2) for recognizing the acetylated lysine residues
Put plainly: BRD4 (BD2) bromodomain binding, HTRF. Conditions: 2 h incubation at r.t.

Assay [3] concerns MV-4-11 cells. Briefly: Inhibitory effect on MV-4-11 cells (CellTiter-Glo). In kind it is cell-based. The note with it: Homo sapiens, MV4-11; 72 hours, CellTiter-Glo; read-out: MV-4-11.
Procedure: The 1st Day: Seed the Cells on the Plate
1. The cells were verified that they were in good conditions by observation under microscope;
2. The cells were transferred to a 15 mL centrifuge tube, after centrifuged at 1000 rpm for 5 min, the supernatant was discarded;
3. The complete medium (IMDM+10% FBS) was added, then blown and patted into single cell suspension, counted by Vi-cell cytometer, the cell suspension was adjusted to desired cell density by the complete medium.
4. The cells were inoculated into a 96 well plate, the cell number was 15000/well at 100 μL per well, 100 μL complete medium was added into the black control.
5. 37° C., 5% CO2 culture overnight.
The 2nd Day: Addition of the Drugs
1. 1000× Compound Plate Preparation
1.1. The test compound was prepared into 10 mM working solution by using DMSO. Then the STS was prepared into 2 mM working solution by using DMSO.
1.2. In the round bottom 96 wells plate, the column 2 of row A to H was added into 60 μL 10 mM test compound (or STS) working solution, columns 3-11 were added into 40 μL DMSO, 20 μL drug solution was pipetted from the column 2 to the column 3, blown and patted for a homogeneous mixture; then 20 μL solution was pipetted from the column 3 to the column 4, blown and patted for a homogeneous mixture, sequently, the drug was diluted by 3 times, 10 concentrations in total. The columns 1 and 12 were supplemented with 40 μL of DMSO.
2. Intermediate plate areparation
A sterile V-bottom 96 deep well plate was used and in each well, 495 μL FBS-free PRMI 1640 medium was added, then 5 μL of the diluted compound (or DMSO) in the 1000× compound plate was pipetted into corresponding position of the V-bottom 96 well plate, blown and patted evenly.
3.1. The cell plate was taken out from the incubator and was observed under microscope. The diluted compound or DMSO in the intermediate plate was added into the cell plate, 11 μL each well.
3.2. The cell was continued to be cultured at 37° C., 5% CO2 for 72 hours.
The 5th Day: CellTiter-Glo Detection of the Cell Activity
1. The CellTiter-Glo buffer and the reaction substrate were taken out from the refrigerator, after balanced to r.t., the buffer was poured into a brown bottle containing the substrate, the bottle was upside down to have the substrate powder sufficientaly dissolved.
2. The cell was observed under microscope; the cell plate was balanced to r.t.
3. The prepared CellTiter-Glo was added into the 96 well plate, at 100 μL/well.
4. The cell plate was placed on a shaker for 10 min, followed by standing at r.t. for 10 min.
5. A white seal film was attached to the bottom of the well plate, and the chemiluminescence signal of each well was detected by the Enspire microplate detector.
6. XLfit was used for data processing. Inhibition rate %=(d−c)/(d−b)×100, while d is the signal value of the DMSO treated group, c is the signal value of the compound treated group, b is signal value of the blank control that only containing medium and DMSO without cells. The data was fitted using the f(x)205[fit=(A+((B−A)/(1+((C/x)^∧D))))] equation in the XLfit software.

As to `CC(C)NC(=O)C[C@@H]1N=C(c2ccc(Cl)cc2)c2ccccc2-c2cn(C)c(=O)cc21` [Compound 4032, (S)-2-(7-(4-chlorophenyl)-2-methyl-3-oxo-3,5-dihydro-2H-benzo[c]pyrido[3,4-e]azepin-5-yl)-N-isopropylacetamide], the IC50 turned out to be 3 nM in assay [1], 2 nM in assay [2] and 6 nM in assay [3].
Taken in the same sequence, the figures for `CCS(=O)(=O)Cc1ccc2c(c1)-c1cn(C)c(=O)cc1[C@H](C)N=C2c1ccc(OC)cc1` [Compound 4053, (S)-10-((ethylsulfonyl)methyl)-7-(4-methoxylphenyl)-2,5-dimethyl-2,5-dihydro-3H-benzo[c]pyrido[3,4-e]azepin-3-ketone] were 2 nM, 1 nM and 7 nM.
Taken in the same sequence, the figures for `C[C@@H]1N=C(c2ccc(Cl)cc2)c2ccccc2-c2cn(C)c(=O)cc21` [Compound 4025, (S)-7-(4-chlorophenyl)-2,5-dimethyl-2,5-dihydro-3H-benzo[c]pyrido[3,4-e]azepin-3-ketone] were 7 nM, 3 nM and 54 nM.
The corresponding values for `CCS(=O)(=O)Cc1ccc2c(c1)-c1cn(C)c(=O)cc1[C@H](C)N=C2c1ccc(C#N)cc1` [Compound 4075] are 4 nM, 2 nM and 10 nM.
Consider `CNS(=O)(=O)Nc1ccc2c(c1)-c1cn(C)c(=O)cc1[C@H](C)N=C2c1ccc(F)cc1` [Compound 4050, (S)—N-(7-(4-flurophenyl)-2,5-dimethyl-3-oxo-3,5-dihydro-2H-benzo[c]pyrido[3,4-e]azepin-10-yl)methylamine sulfonamide], for which the IC50 in assay [1] worked out at 17 nM; in assay [2] it was 9 nM.
On to `Cn1cc2c(cc1=O)CNC(c1ccc(F)cc1)c1ccc(CS(C)(=O)=O)cc1-2` (centres unmarked) [Compound 4008, 7-(4-fluorophenyl)-2-methyl-10-(methylsulfonemethyl)-6,7-dihydro-2H-benzo[c]pyrido[3,4-e]azepin-3(5H)-ketone formate], for which the IC50 was 113 nM in assay [1] and 28 nM in assay [2].
Consider `CCS(=O)(=O)Cc1ccc2c(c1)-c1cn(C)c(=O)cc1[C@H](C)N=C2c1ccc(OC)c(F)c1` [Compound 4104, (S)-10-((ethylsulfonyl)methyl)-7-(3-fluoro-4-methoxylphenyl)-2,5-dimethyl-2,5-dihydro-3H-benzo[c]pyrido[3,4-e]azepin-3-ketone], for which the IC50 in assay [1] turned out to be 2 nM; in assay [2] it was 1 nM.
The corresponding values for `CCS(=O)(=O)Cc1ccc2c(c1)-c1cn(C)c(=O)cc1CN=C2c1cc(OC)c(F)cc1Cl` [Compound 4096, 7-(2-chloro-4-fluoro-5-methoxylphenyl)-10-((ethylsulfonyl)methyl)-2-methyl-2,5-dihydro-3H-benzo[c]pyrido[3,4-e]azepin-3-ketone] are 44 nM and 4 nM.
Taken in the same sequence, the figures for `CCS(=O)(=O)Cc1ccc2c(c1)-c1cn(C)c(=O)cc1[C@H](C)N=C2c1cc(OC)c(F)cc1Cl` [Compound 4102, (S)-7-(2-chloro-4-fluoro-5-methoxylphenyl)-10-((ethylsulfonyl)methyl)-2,5-dimethyl-2,5-dihydro-3H-benzo[c]pyrido[3,4-e]azepin-3-ketone] were 5 nM and 0.8 nM.
Take `CNS(=O)(=O)Cc1ccc2c(c1)-c1cn(C)c(=O)cc1[C@H](C)N=C2c1ccc(F)c(OC)c1` [Compound 4103, (S)-1-(7-(4-fluoro-3-methoxylphenyl)-2,5-dimethyl-3-oxo-3,5-dihydro-2H-benzo[c]pyrido[3,4-e]azepin-10-yl)-N-methylmethane sulfamide]: the IC50 in assay [1] amounted to 2 nM; in assay [2], 0.6 nM.
For `CCNC(=O)C[C@@H]1N=C(c2ccc(F)cc2)c2cc(OC)c(F)cc2-c2cn(C)c(=O)cc21` [Compound 4036, (S)—N-ethyl-2-(10-fluoro-7-(4-flurophenyl)-9-methoxyl-2-methyl-3-oxo-3,5-dihydro-2H-benzo[c]pyrido[3,4-e]azepin-5-yl)acetamide], the values for the IC50 in assay [1] and in assay [2] were 5 nM and 2 nM, respectively.
As for `CNS(=O)(=O)Cc1ccc2c(c1)-c1cn(C)c(=O)cc1N(C)N=C2c1ccc(F)cc1` [Compound 4099, 1-(7-(4-flurophenyl)-2,5-dimethyl-3-oxo-3,5-dihydro-2H-benzo[e]pyrido[4,3-c][1,2]diazepin-10-yl)-N-methylmethane sulfamide], the IC50 was 2 nM in assay [1] and 0.9 nM in assay [2].
Taken in the same sequence, the figures for `CCS(=O)(=O)Cc1ccc2c(c1)-c1cn(C)c(=O)cc1[C@H](C)N=C2c1ccc(F)cc1Cl` [Compound 4101, (S)-7-(2-chloro-4-flurophenyl)-10-((ethylsulfonyl)methyl)-2,5-dimethyl-2,5-dihydro-3H-benzo[c]pyrido[3,4-e]azepin-3-ketone] were 3 nM and 0.7 nM.
Taken in the same sequence, the figures for `CCS(=O)(=O)Cc1ccc2c(c1)-c1cn(C)c(=O)cc1C1(CC1)N=C2c1ccc(F)cc1` [Compound 4041, 10-((ethylsulfonyl)methyl)-7-(4-flurophenyl)-2-methyl spiro[benzo[c]pyrido[3,4-e]azepin-5,1′-cyclopropane]-3(2H)-ketone] were 12 nM and 12 nM.
With `CCS(=O)(=O)Cc1ccc2c(c1)-c1cn(C)c(=O)cc1[C@H](C)N=C2c1ccncc1` [Compound 4105, (S)-10-((ethylsulfonyl)methyl)-2,5-dimethyl-7-(pyridin-4-yl)-2,5-dihydro-3H-benzo[c]pyrido[3,4-e]azepin-3-ketone], the IC50 in assay [1] turned out to be 2 nM; in assay [2] it was 1 nM.
The corresponding values for `Cn1cc2c(cc1=O)CN=C(c1ccc(F)cc1Cl)c1ccc(CS(C)(=O)=O)cc1-2` [Compound 4098, 7-(2-chloro-4-flurophenyl)-2-methyl-10-((dimethylfulfone)methyl)-2,5-dihydro-3H-benzo[c]pyrido[3,4-e]azepin-3-ketone] are 22 nM and 3 nM.
The corresponding values for `Cn1cc2c(c1C#N)CCN(c1ccc(F)cc1)c1ccc(CS(C)(=O)=O)cc1-2` [Compound 4004, 6-(4-Fluorophenyl)-2-methyl-9-(methylsulfonylmethyl)-2,4,5,6-tetrahydrobenzo[b]pyrrolo[3,4-d]azepin-3-nitrile] are 109 nM and 184 nM.
Taken in the same sequence, the figures for `CCS(=O)(=O)Cc1ccc2c(c1)-c1nn(C)c(=O)cc1C(C)N=C2c1ccc(F)cc1Cl` (centres unmarked) [Compound 4097, 7-(2-chloro-4-flurophenyl)-10-((ethylsulfonyl)methyl)-2,5-dimethyl-2,5-dihydro-3H-benzo[c]pyridazino[3,4-e]azepin-3-ketone] were 20 nM and 3 nM.
For the compound `CCS(=O)(=O)Cc1ccc2c(c1)C(c1ccc(F)cc1)=NCc1cc(=O)n(C)cc1-2` [Compound 4039, 9-((ethylsulfonyl)methyl)-7-(4-flurophenyl)-2-methyl-2,5-dihydro-3H-benzo[c]pyrido[3,4-e]azepin-3-ketone], the IC50 in assay [1] was 163 nM; in assay [2], 204 nM.
`CCNC(=O)C[C@@H]1N=C(c2ccc(F)cc2)c2c(ccc(OC)c2F)-c2cn(C)c(=O)cc21` [Compound 4035, (S)—N-ethyl-2-(8-fluoro-7-(4-flurophenyl)-9-methoxyl-2-methyl-3-oxo-3,5-dihydro-2H-benzo[c]pyrido[3,4-e]azepin-5-yl)acetamide]: the IC50 was 3 nM in assay [1] and 1 nM in assay [2].

For the origin of these results see patent publication US20190284192A1, “NITROGENOUS MACROCYCLIC COMPOUND, PREPARATION METHOD THEREFOR, PHARMACEUTICAL COMPOSITION AND APPLICATION THEREOF” (LUOXIN PHARMACEUTICAL (SHANGHAI) CO., LTD., priority 2016, published 2019).
